In paper PMC6784447, “Evaluation of 3-Chlorobenzoate 1,2-Dioxygenase Inhibition by 2- and 4-Chlorobenzoate with a Cell-Based Technique” (Biosensors, 2019) one finds Km data, which are given here for one compound.

For the assay, the system named is T1, 3-chlorobenzoate-1,2-dioxygenase (3-CBDO; 3-CBA-1,2-DO).
T1 construct: native enzyme, not purified, in intact freshly harvested 3-CBA-grown cells; component and subunit make-up printed only for the analogous benzoate 1,2-dioxygenase; with 3-chlorobenzoate 1,2-dioxygenase subunit beta (benzoate 1,2-dioxygenase small subunit-like); 3-chlorobenzoate 1,2-dioxygenase reductase component (benzoate 1,2-dioxygenase reductase-like)
Description: respiration of intact cells, Clark oxygen electrode reactor biosensor; Hill fit. In kind it is cell-based, Rhodococcus opacus. Conditions: 50 mM Tris-HCl pH 8.0, air-saturated, room temperature; intact 3-CBA-grown cells (indirect estimate of enzyme activity); Hill n 2.36; no added inhibitor; read-out: S0.5.

Regarding `O=C(O)c1cccc(Cl)c1` [3-chlorobenzoate], the Km is 45.3 ± 6.3 µM.
